Structures are written as SMILES.

This assay deals with Plasmodium falciparum. Nature of the assay: GSK_TCMDC: Inhibition of Plasmodium falciparum 3D7 in whole erythrocytes, using parasite LDH activity as an index of growth. The class given is functional, organism-based. The note with it: Plasmodium falciparum, 3D7.
`O=C(Cn1c(CCc2cccc(F)c2F)nc(=O)c2ccccc21)N(CCCN1CCCCC1)Cc1ccc(-c2ccc(C(F)(F)F)cc2)cc1` gave an XC50 of 762 nM.
`C=CCc1cc(Cc2cnc(N)nc2N)cc(CCC)c1O` displayed an XC50 of 986 nM.
The same measure for `COc1cc([N+](=O)[O-])ccc1NC(=O)c1cc(Cl)ccc1O`: 1140 nM; for `O=C(Nc1ccc(CN2CCN(S(=O)(=O)c3ccc(Cl)s3)CC2)cc1)c1cccs1`: 894 nM.
For `COc1ccc(CNC2Cc3ccccc3C2)cc1-c1ccc(S(=O)(=O)NCCN2CCCC2)cc1`, the XC50 was determined as 582 nM.
For `Cc1ccc2cc(NC(=O)c3cccc(C(=O)Nc4ccc5nc(C)ccc5c4)n3)ccc2n1`, the XC50 was found to be 1170 nM.
`COc1ccc2nccc([C@@H](O)CN3CCC(NC(=O)c4ccc(Cl)c(OC)c4)CC3)c2c1` yielded an XC50 of 792 nM.
As for `CC(Cc1ccc(Oc2ccc(Cl)cc2)cc1)NCC(O)c1cccc(Cl)c1` (configuration not stated), the XC50 turned out to be 739 nM.
As to `CN(C)c1ccc(-c2csc(C(=O)NCC3CCN(CCC(C)(C)C)C3)c2)cc1` (configuration not stated), the XC50 is 1500 nM.
Next, `Oc1ccc2[nH]cc(C3CCN(CCC(c4ccccc4)c4ccccc4)CC3)c2c1`: 994 nM; `COc1ccc(NC(=O)CCNc2cc(C)nc(NCCOc3ccccc3)n2)cc1`: 746 nM; `CN(C)CCn1c(=N)n(CC(O)c2ccc(Cl)c(Cl)c2)c2ccccc21` (configuration not stated): 798 nM.
As for `CCNc1cc(C(=O)N[C@@H](Cc2ccccc2)[C@H](O)CNCc2cccc(OC)c2)c(OC)c(N2CCCCS2(=O)=O)c1`, the XC50 was determined as 689 nM.
Take `O=C(c1cc(OC(F)(F)F)ccc1O)N1CCN(c2ccccc2)CC1`: the XC50 worked out at 1050 nM.
`COc1ccc(CNCc2ccccc2)cc1-c1cccc(S(=O)(=O)NCCN2CCCC2)c1` gave an XC50 of 786 nM.
For the compound `N=C(N)NC(=O)Nc1cc(F)c(Cl)c(Cl)c1`, the XC50 was found to be 505 nM.
The same measure for `O=C(C=Cc1ccc(C(=O)Nc2ccc(C3=NCCN3)cc2)cc1)Nc1ccc(C2=NCCN2)cc1`: 34.7 nM.
Next, `COc1ccc2ncn(-c3ccc(C(N)=O)c(OCc4ccccc4C(F)(F)F)c3)c2c1`: 540 nM; `Oc1ccc2nc(Nc3ccccc3)nc(NCCc3ccccc3)c2c1`: 152 nM; `CN1CCN(CCCN(Cc2csc(-c3ccc(CNCc4ccccc4)cc3)n2)C(=O)Nc2cccc(Cl)c2)CC1`: 789 nM.
As to `O=C(N[C@@H](Cc1ccccc1)C(=O)NCCN1CCCC1)c1ccc(O)c(-c2ccc(Cl)c(Cl)c2)c1`, the XC50 worked out at 800 nM.
Next, `CN1CCCN(Cc2cccc(-c3cccc(NC(=O)c4ccc(C#N)cc4)c3)c2)CC1`: 1140 nM.
The same measure for `COc1ccc(-c2csc(N(CCCN(C)C)C(=O)c3cc4c(C)nn(-c5ccccc5)c4s3)n2)cc1`: 623 nM; for `NCc1cccc(-c2ccc(CNC3CCN(Cc4ccccc4)CC3)cc2)c1`: 1700 nM; for `CCCc1cc(Cc2cnc(N)nc2N)c2cccnc2c1OC`: 675 nM.
With `CN(C)CCCNCc1ccc(-c2ccc(CNCCOc3ccccc3)cc2)cc1`, the XC50 stood at 18.6 nM.
`CCCCCc1cc(O)c2c(c1)OC(C)(C)c1ccncc1-2`: the XC50 amounted to 763 nM.
Compound `CCCCOc1cc2ncc(C(=O)OCC)c(O)c2cc1OCCCC` came in with an XC50 of 201 nM.
Compound `CC(C)CC(=O)N1CCNC[C@@H]1C(=O)NCCSCc1c(F)cccc1Cl` yielded an XC50 of 1200 nM.
Next, `CC(C)NCc1ccc(-c2cccc(NC(=O)c3cccc(Cl)c3)c2)cc1`: 728 nM; `O=C(NC1CCC1)C1CCN(C(c2ccccc2)c2cc(F)cc(F)c2)CC1` (configuration not stated): 797 nM.
Next, `CCOC(=O)c1cc(C(=O)NCCCCN2CCC(c3cn(C)c4ccccc34)CC2)ccc1-c1ccc(C(F)(F)F)cc1`: 1200 nM; `CC(C)C(=O)NC(Nc1ccc([N+](=O)[O-])cc1)C(Cl)(Cl)Cl` (configuration not stated): 835 nM.
As for `O=C(CSc1nccn1C1CCCC1)Nc1cc(C(F)(F)F)ccc1Cl`, the XC50 was determined as 382 nM.
The compound `N#Cc1ccc2c(c1)CN(C1CCC(NC(=O)C3=Cc4cc(Cl)ccc4OC3)CC1)CCC2` (configuration not stated) displayed an XC50 of 1330 nM.
Next, `O=C(COc1ccc(Cl)cc1)N1CCC(CN2CCC(c3c[nH]c4ccccc34)CC2)CC1`: 1100 nM; `CCCCSc1c(CNCCCCCCNCc2ccc3ccccc3c2SCCCC)ccc2ccccc12`: 999 nM; `FC(F)(F)c1ccc2[nH]c(-c3ccc(-c4ccc(CNCc5cnn(-c6ccccc6)n5)cc4)cc3)nc2c1`: 433 nM.
The compound `CCCCCCCN1CC[C@@H](C[C@H](N)Cc2ccnc3ccc(OC)cc23)[C@@H](CC)C1` registered an XC50 of 1070 nM.
For `N#Cc1ccc(S(=O)(=O)N2C(c3cccc([N+](=O)[O-])c3)C(C(=O)c3ccccc3)N(C3CCCCC3)C2c2cccc([N+](=O)[O-])c2)cc1` (configuration not stated), the XC50 is 1080 nM.
Consider `Cc1ccc(NC(=O)Nc2ccccc2)cc1-c1ccc(C(=O)Nc2ccncc2)cc1`, for which the XC50 stood at 240 nM.
On to `COc1ccc(Cl)cc1-c1nc(C(=O)NCCN2CCCCC2)c(C)s1`, for which the XC50 was determined as 938 nM.
In the case of `CC(C)C[C@@H](/C=N/N1CCOC1=O)NC(=O)[C@H](CC(C)C)NC(=O)c1ccc(OCCN2CCOCC2)cc1`, the XC50 stood at 215 nM.
`C=CCc1ccc(C[C@H](NC(=O)OC(C)(C)C)C(=O)OC)cc1` displayed an XC50 of 814 nM.
Compound `c1ccc2c(CNCCCCCCNCc3c(OCC4CC4)ccc4ccccc34)c(OCC3CC3)ccc2c1` came in with an XC50 of 928 nM.
For the compound `O=C(Nc1ccc(Cl)c(Cl)c1)N(Cc1ccccc1Br)C1CCNCC1`, the XC50 came to 1030 nM.
Turning to `Cc1ccccc1C1CCN(C2CCC(NC(=O)/C=C/c3cc(F)ccc3C(F)(F)F)CC2)CC1` (configuration not stated), the XC50 came out at 953 nM.
Regarding `CCCc1ccc(C2CCN(CCCCNC(=O)c3ccc(NC(=O)c4ccc(Cl)cc4)cc3)CC2)cc1`, the XC50 worked out at 628 nM.
Turning to `COc1ccc2nccc([C@@H](O)CN3CCC(NCc4nc5cc(F)ccc5o4)CC3)c2c1`, the XC50 worked out at 149 nM.
For `O=C(CCc1c[nH]cn1)Nc1ccc(-c2cccc(-c3nc4ccccc4[nH]3)c2)cc1`, the XC50 turned out to be 348 nM.
For `CCNC(=O)Nc1ccc(-c2cccc(-c3nc4cccc(C)c4[nH]3)c2)cc1`, the XC50 was 756 nM.
`CC(C)n1ncc2c(C(=O)N3CCCCCC3)cc(-c3ccccc3)nc21` showed an XC50 of 789 nM.
The same measure for `CC(C)CNC(=O)c1ccnc(-c2ccc(CNCCCc3ccccc3)cc2)c1`: 728 nM; for `O=c1cc(NCCCNCc2scc3c(Cl)cc(C(F)(F)F)nc23)[nH]c2ccccc12`: 754 nM.
`Brc1ccc(Nc2nc(NCC3CCCO3)c3ccccc3n2)cc1` (configuration not stated) yielded an XC50 of 584 nM.
Consider `CCOC(=O)NC1=NC(C)(C)N(OCc2cccc3c2ccc2ccccc23)C(NC(=O)OCC)=N1`, for which the XC50 was 172 nM.
`O=C(CCNc1ccnc(NCCc2ccc(F)cc2)n1)Nc1ccccc1` came in with an XC50 of 829 nM.
The same measure for `COc1ccc(-c2nnc(Sc3ccc(C#N)c([N+](=O)[O-])c3)n2CC(C)C)cc1`: 821 nM.
The compound `CC(=O)N/N=C/[C@H](CCc1ccccc1)NC(=O)[C@H](CC(C)C)NC(=O)c1ccc(F)cc1` showed an XC50 of 692 nM.
The compound `COc1cc2nc(NCc3cccc(CNC(=O)c4ccc(-c5ccc(C(C)=O)cc5)cc4)c3)nc(N)c2cc1OC` yielded an XC50 of 118 nM.
In the case of `O=C(NCCCCN1CCC(c2ccc3c(c2OCCO)CCCC3)CC1)c1sc(-c2ccc(C(F)(F)F)cc2)nc1CO`, the XC50 turned out to be 1050 nM.
`CCOc1cc(O)c(-c2nc(N)ncc2-c2ccc3c(c2)OCCO3)cc1CC` registered an XC50 of 729 nM.
In turn, `Cc1cc(C(=O)NC2CCN(Cc3ccccc3)CC2)ccc1-c1nc2cc(Cl)c(Cl)cc2[nH]1` gave an XC50 of 959 nM.
The same measure for `Cc1nc(C(C)Nc2nncc(-c3ccc(Cl)cc3)n2)cs1` (configuration not stated): 1330 nM; for `Cc1[nH]c(CNCCCNc2cc(=O)c3ccccc3[nH]2)c(Br)c1Br`: 1040 nM.
Next, `CC(=O)Nc1ccc(C(=O)N2CCN(c3ccnc4cc(Cl)ccc34)CC2)cc1`: 909 nM.
In turn, `Cc1nc2ccccc2n1C1CC2CCC(C1)N2CCCC1(c2ccccc2)CCN(C(=O)OCc2ccccc2)CC1` (configuration not stated) displayed an XC50 of 998 nM.
The compound `Nc1ccc(-c2nc3cc(Oc4ccc5[nH]c(-c6ccc(N)cc6)nc5c4)ccc3[nH]2)cc1` showed an XC50 of 719 nM.
With `Oc1ccc(CCNc2nc(NCCCOc3ccccc3-c3ccncc3)nc(N3CCNCC3)n2)cc1`, the XC50 worked out at 1110 nM.
Regarding `FC(F)(F)c1cccc(N=C(S)NN=Cc2ccccn2)c1`, the XC50 amounted to 346 nM.
Next, `COc1ccccc1OCCN(CC(O)COc1cccc2[nH]c3ccccc3c12)CC(O)COc1cccc2[nH]c3ccccc3c12` (configuration not stated): 636 nM; `O=C(Nc1ccccc1)N(Cc1cccc(-c2ccc(CNC3CCCC3)cc2)c1)C1CCN(Cc2ccccc2)CC1`: 394 nM.
Next, `Cc1cc2c(NC(=O)NC3CCN(CCc4cccc(Cl)c4)CC3)cccc2cn1`: 370 nM; `Cc1c(CNCCCNc2nc3cscc3[nH]2)sc(C(F)F)c1Br`: 936 nM; `CC(=O)CCc1ccc(OCCN(Cc2ccccc2C(F)(F)F)c2ccc(C#N)c(C(F)(F)F)c2)cc1`: 267 nM.
For `CC1(C)N=C(N)N=C(N)N1OCCCCON1C(N)=NC(N)=NC1(C)C`, the XC50 amounted to 66 nM.
Regarding `O=S(=O)(ON=C1CCc2ccccc21)c1ccc(Cl)cc1`, the XC50 stood at 1310 nM.
The same measure for `CC(=O)N[C@H](C(=O)Nc1ccc(-c2cccc(-c3nc4cccc(C)c4[nH]3)c2)cc1)C(C)C`: 1090 nM.
Compound `C[C@@H](N/C(=N\c1ccc(-c2ccccc2)cc1)Nc1ccc(C#N)cc1O)c1ccc(Br)cc1` gave an XC50 of 699 nM.
`CN1CCCN(Cc2cccc(-c3cccc(NC(=O)c4ccc(Cl)cc4)c3)c2)CC1` displayed an XC50 of 922 nM.
The compound `COc1ccc2ncc(F)c([C@@H](O)CN3CCC(NCc4cc5c(cn4)OCCO5)CC3)c2c1` showed an XC50 of 140 nM.
`Cc1ccc(NC(=O)c2c(C)noc2-c2snnc2C)cc1` displayed an XC50 of 1370 nM.
Next, `Cc1c(-c2cccc(C(C)(C)NCCCN3CCCCC3)c2)cnc(N)c1C`: 938 nM.
Turning to `Cc1cnc2cc3c(cc2c1N1CCN(C)CC1)NCC3`, the XC50 came to 779 nM.
Take `CC(C)CCN1CCC(Oc2ccc(NC(=O)c3ccc(F)cc3)cc2Cl)CC1`: the XC50 is 725 nM.
`CCOC(=O)c1cnc2c(C(F)(F)F)cccc2c1Nc1ccc(O)cc1`: the XC50 came to 632 nM.
The compound `Cc1ccccc1C1CCN(C2CCC(NC(=O)c3ccc(-c4ccccn4)s3)CC2)CC1` (configuration not stated) yielded an XC50 of 1180 nM.
